Like-named read-outs stand apart in the source and are kept apart here. Ends that are not written are not given here. Peptide text beside a SMILES is read from it. * marks the point of attachment. FITC = O=C1OC2(c3ccc(O)cc3Oc3cc(O)ccc32)c2ccc(NC(=S)*)cc21; 125I = [125I]*
Experiments:
[1] = biological target: HLA-A*0201 (Homo sapiens, UniProt P04439, D140Y/D185E/D98H/E176V/E277Q/G131W/G231S/I119V/I121R/I166T/I218V/L300P/L318F/N151K/N90K/P208A/P217A/Q86G/Q94H/R138H/R169H/T345S); details: cited from earlier work; for IC50: read-out: cell-free systems (^125I) IC50, published values, 125I peptide tracer
[2] = biological target: T1, sHLA-A*0201 (Homo sapiens, UniProt P04439, D140Y/D185E/D98H/E176V/E277Q/G131W/G231S/I119V/I121R/I166T/I218V/L300P/L318F/N151K/N90K/P208A/P217A/Q86G/Q94H/R138H/R169H/T345S); test: biochemical; details: for kon: read-out: association rate constants kon
[3] = biological target: T1, sHLA-A*0201; test: biochemical; type: binding; set-up: contained the leader peptide, as well as the α1, α2, and α3 coding domains of the HLA heavy chain; made in house; β2m from Fitzgerald Industries International
[4] = biological target: T2, A*1102 (Homo sapiens, UniProt P04439, A114D/D185E/E176A/E43K/F33Y/L180Q/S129P/T187R); test: Multiple-specificity screening of FITC-labeled peptides (supertyping, FP); type: binding; details: 2 nM peptide, 100 μg/ml activated sHLA
T2 construct: contained the leader peptide, as well as the α1, α2, and α3 coding domains of the HLA heavy chain; made in house
From the text: (§1) Multiple-specificity screening of FITC-labeled peptides: To approach the problem of supertype analysis, a novel, state-of-the-art screening assay was developed that utilizes high quality soluble HLA and the technique of fluorescence polarization (FP). This assay combination allows the direct measurement of the ratio between free and bound labeled ligand in solution without any separation steps. The technique of FP is based on the principal that if a fluorescent-labeled peptide binds to the sHLA molecule of higher molecular weight, polarization values will increase due to the slower molecular rotation of the bound probe.
(§2) To elaborate peptide cross-reactivity among MHC class I molecules, a panel of 53 single-specificity sHLA receptors was screened for their binding capacity towards a series of fluorescent-labeled peptide ligands. During the process, each peptide candidate (2 nM) was incubated with 100 μg/ml of activated sHLA and peptide/MHC interaction was monitored over time on the Analyst™ AD Assay Detection System (Molecular Devices; Sunnyvale, Calif.). For optimal signal output, b2-microglobulin was added in 2× molar excess of the used sHLA concentration. For all preparations, 1× BGG/PBS was used as buffer. The use of appropriate controls allowed accurate estimation of specific polarization. […]

[5] = test system: alleles listed for the B27 supertype; test: as above; type: binding, human; details: 2 nM peptide, 100 μg/ml activated sHLA
From the text: as §1, §2

[6] = biological target: T1, sHLA-A*0201; test: Epitope screening at a threshold concentration of 80 μM (FP competition); details: 80 μM peptide, 50 μg/mL sHLA-A*0201, 1 nM P5, β2m 2117 nM
[7] = biological target: T1, sHLA-A*0201; type: binding; set-up: contained the leader peptide, as well as the α1, α2, and α3 coding domains of the HLA heavy chain; made in house; β2m from Fitzgerald Industries International; details: 10 nM pFITC, sHLA-A*0201 titration
[8] = biological target: T1, sHLA-A*0201; test: Multiple specificity screening by FP; type: binding; set-up: contained the leader peptide, as well as the α1, α2, and α3 coding domains of the HLA heavy chain; made in house; β2m from Fitzgerald Industries International; details: 10 nM peptide, 100 μg/mL activated sHLA
Procedure: Multiple Specificity Screening. To determine the specificity for sHLA-A*0201 as well as potential cross-reactivity to other sHLA alleles, 48 different sHLA alleles were screened for binding with the A*0201 pFITC constructs (FIG. 15). For screening purposes, each peptide candidate (10 nM) was incubated with 100 μg/mL activated sHLA, and the peptide/HLA interaction was monitored over time. As expected, no significant binding was detected to any of the B-alleles tested (FIG. 15B), whereas a high binding affinity was observed between sHLA-A*0201 and the pFITC candidates. An exception was pFITC P3 (FIG. 15A). […] The significant decrease in association kinetics recorded after 0.8 h seems to imply that the HLA class I molecule is not stabilized following exposure to this peptide, irrespective of whether it attempted to bind. […] Thus, modification of the residue at the P4 nonanchor position of pFITC P3 may not affect the specificity and association kinetics of peptide binding but rather seems to affect the stability of the class I peptide interaction.

[9] = cited from earlier work
[10] = read-out: dissociation rate constants
[11] = read-out: dissociation rate constants koff
[12] = 50 μg/mL (1059 nM) sHLA-A*0201, β2m 2117 nM, 1 nM FITC-labeled reference peptide P5, read-out: StD comp assay (FP) IC50

CC[C@H](C)[C@H](NC(=O)[C@H](Cc1c[nH]c2ccccc12)NC(=O)[C@@H](NC(=O)CNC(=O)[C@H](Cc1ccccc1)NC(=O)[C@H](CO)NC(=O)[C@@H](NC(=O)[C@H](CC(C)C)NC(=O)[C@@H](N)Cc1ccc(O)cc1)C(C)C)C(C)C)C(=O)O
IC50 [1]: 0.0019 µM

CC(C)C[C@H](N)C(=O)N[C@H](C(=O)N[C@@H](Cc1ccccc1)C(=O)NCC(=O)N[C@@H](CCCCNC(=S)Nc1ccc2c(c1)C(=O)OC21c2ccc(O)cc2Oc2cc(O)ccc21)C(=O)N[C@@H](CCC(=O)O)C(=O)N[C@H](C(=O)N[C@H](C(=O)N[C@@H](CCC(=O)O)C(=O)N[C@H](C(=O)O)C(C)C)C(C)C)C(C)C)C(C)C [P4, L V F G K E V V E V] (H-LVFGK(FITC)EVVEV-OH)
kon [2]: 9900 M⁻¹ s⁻¹ | koff [2, 10]: 0.00019 to 0.00043 s⁻¹ | koff [2, 11]: 0.000284 s⁻¹

CSCC[C@H](NC(=O)[C@H](CC(C)C)NC(=O)[C@H](C)N)C(=O)N[C@@H](CC(=O)O)C(=O)N[C@@H](CCCCN)C(=O)N[C@H](C(=O)N[C@@H](CC(C)C)C(=O)N[C@@H](CCCCNC(=S)Nc1ccc2c(c1)C(=O)OC21c2ccc(O)cc2Oc2cc(O)ccc21)C(=O)N[C@H](C(=O)O)C(C)C)C(C)C [P5]
kon [2]: 86800 M⁻¹ s⁻¹ | koff [2, 10]: 0.00019 to 0.00043 s⁻¹ | koff [2, 11]: 0.000188 s⁻¹

DLVHFASPL
IC50 [1]: 16.7 µM | IC50 [3, 12]: 366 µM

FLPSDY(^125I)FPSV (FLPSDY(125I)FPSV; listed as Homo sapiens) [iodinated molecule of earlier publications (Sette et al., 1994a)]
Kd ([1]; Sette et al., 1994a, read-out: affinity of the iodinated molecule in earlier publications): 0.0155 µM

GRAFVTIKK
binding capacity [4]: high A*1102 binding capacity | binding [5]: did not bind

KLGEFYNQMM
IC50 [3, 12]: 2.82 µM | IC50 ([3]; IC50 with different pFITC reference peptides): 2.48 to 10.5 µM | IC50 ([3]; IC50 within the different tracer systems): 2.48 to 10.5 µM

LVMAPRTVL (listed as Homo sapiens)
inhibition at 80 μM [6]: minor

N L S K L S L D V (NLSKLSLDV; also: FITC label, position not given here; listed as Homo sapiens) [P3]
saturation curve / stable complex formation with sHLA-A*0201 [7]: not able to form stable complexes with sHLA-A*0201 | binding [8]: failed to attain a higher polarization level compared to the other candidates

YLLPAIVHI
IC50 [1]: 0.018 µM | IC50 [3, 12]: 0.51 µM

fluorescein isothiocyanate [FITC]
pKa [9]: approximately 6.5

From patent US20070026433A1, “Epitope testing using soluble HLA” (priority 2001, published 2007)
